In PMC7304964 (Science Advances, 2020) one finds IC50 data, which are given here for 2 compounds.

pIC50: −log10 of the molar value.

In general, pIC50 refers to the IC50 on a negative log10 scale, so that one unit is a factor of ten. A lower pIC50 goes with a large IC50.

The target in this assay is T1, human NPC1L1 (Homo sapiens, UniProt Q9UHC9).
T1 sequence (Q9UHC9 22-1359): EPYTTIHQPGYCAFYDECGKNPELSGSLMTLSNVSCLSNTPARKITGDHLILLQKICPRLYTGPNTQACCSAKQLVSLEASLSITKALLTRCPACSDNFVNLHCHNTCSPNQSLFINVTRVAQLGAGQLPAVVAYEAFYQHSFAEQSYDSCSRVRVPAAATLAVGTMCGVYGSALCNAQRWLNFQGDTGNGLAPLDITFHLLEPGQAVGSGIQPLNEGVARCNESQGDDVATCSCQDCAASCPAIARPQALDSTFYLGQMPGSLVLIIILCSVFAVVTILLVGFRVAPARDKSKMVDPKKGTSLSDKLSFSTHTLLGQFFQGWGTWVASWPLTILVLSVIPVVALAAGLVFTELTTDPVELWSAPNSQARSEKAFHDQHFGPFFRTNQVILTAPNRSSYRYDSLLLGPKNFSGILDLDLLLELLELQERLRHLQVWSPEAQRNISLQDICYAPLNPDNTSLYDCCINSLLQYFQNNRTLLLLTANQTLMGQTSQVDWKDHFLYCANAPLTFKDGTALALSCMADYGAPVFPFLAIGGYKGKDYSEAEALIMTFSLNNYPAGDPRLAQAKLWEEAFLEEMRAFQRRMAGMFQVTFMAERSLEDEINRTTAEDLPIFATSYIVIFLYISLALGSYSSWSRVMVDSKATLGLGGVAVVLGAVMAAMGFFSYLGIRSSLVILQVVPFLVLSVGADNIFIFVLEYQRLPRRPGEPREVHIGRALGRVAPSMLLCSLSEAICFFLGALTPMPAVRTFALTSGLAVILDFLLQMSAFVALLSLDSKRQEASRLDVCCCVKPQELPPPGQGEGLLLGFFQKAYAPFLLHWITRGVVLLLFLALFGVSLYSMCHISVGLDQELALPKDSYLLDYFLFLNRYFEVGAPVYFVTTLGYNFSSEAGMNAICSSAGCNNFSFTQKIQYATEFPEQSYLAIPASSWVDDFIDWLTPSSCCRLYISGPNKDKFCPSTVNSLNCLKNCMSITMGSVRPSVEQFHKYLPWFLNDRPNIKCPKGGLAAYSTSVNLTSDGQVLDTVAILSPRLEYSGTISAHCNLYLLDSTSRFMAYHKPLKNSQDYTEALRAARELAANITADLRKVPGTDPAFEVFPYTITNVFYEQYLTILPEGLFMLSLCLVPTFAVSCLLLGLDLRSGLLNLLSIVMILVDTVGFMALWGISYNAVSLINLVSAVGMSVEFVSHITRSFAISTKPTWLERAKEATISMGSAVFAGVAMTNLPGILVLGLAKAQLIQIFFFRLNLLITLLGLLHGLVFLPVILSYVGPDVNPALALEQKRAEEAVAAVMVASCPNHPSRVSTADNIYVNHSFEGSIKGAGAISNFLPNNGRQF
Kind of assay: 3H-cholesterol uptake inhibition in hNPC1L1/MDCKII cells. It is filed as cell-based.

In turn, `O=C1[C@H](CC[C@H](O)c2ccc(F)cc2)[C@@H](c2ccc(O)cc2)N1c1ccc(F)cc1` [Eze, ezetimibe] showed a pIC50 of 5.41. Then `O=C(O)[C@H]1O[C@@H](Oc2ccc([C@@H]3[C@@H](CC[C@H](O)c4ccc(F)cc4)C(=O)N3c3ccc(F)cc3)cc2)[C@H](O)[C@@H](O)[C@@H]1O` [Eze-Glu, ezetimibe-glucuronide], with 6.17.
